{"source": "patent US8956592B2", "about": "“Oral care compositions” (Colgate-Palmolive Company, priority 2010, dated 2015)", "origin": "cited, not measured here"}
{"test_system": "S. mutans, F. nucleatum, V. parvula, A. naslundii, P. gingivitis", "details": "in vitro tests"}
{"compound": "C=CCc1ccc(O)c(-c2ccc(O)c(CC=C)c2)c1", "note": "[honokiol]", "bactericidal properties against representative oral bacteria": "bactericidal properties"}
{"compound": "C=CCc1ccc(O)c(-c2cc(CC=C)ccc2O)c1", "note": "[magnolol]", "bactericidal properties against representative oral bacteria": "bactericidal properties"}
{"compound": "CCCc1ccc(O)c(-c2ccc(O)c(CCC)c2)c1", "note": "[tetrahydrohonokiol, 3′,5-dipropylbiphenyl-2,4′-diol]", "bactericidal properties against representative oral bacteria": "bactericidal properties"}
{"compound": "CCCc1ccc(O)c(-c2cc(CCC)ccc2O)c1", "note": "[tetrahydromagnolol, 5,5′-dipropylbiphenyl-2,2′-diol]", "bactericidal properties against representative oral bacteria": "bactericidal properties"}
